Results as given in ChEMBL document CHEMBL4177599, “The antitubercular activity of various nitro(triazole/imidazole)-based compounds” (Bioorg Med Chem, 2017).
Values after ≈ are worked out from the molar mass of the structure shown.

What was measured:
[1] = test system: Mycobacterium tuberculosis; assay: Antitubercular activity against Mycobacterium tuberculosis H37Rv ATCC 27294 after 5 days under aerobic condition; type: functional, organism-based; conditions: for IC50 / IC90 / MIC: H37Rv ATCC 27294, 120 h; for Activity: TDE = time-dependent effect
[2] = Solubility of compound in Middlebrook 7H9 broth media at pH 6.4 at 200 uM after 90 mins by UV-VIS spectrophotometric method; type: physicochemical; conditions: buffer, pH 6.4, 1.5 h
[3] = Half life in human liver S9 microsomes at 1 uM in presence of NADPH by LC-MS/MS analysis
[4] = Intrinsic clearance in human liver S9 microsomes at 1 uM in presence of NADPH by LC-MS/MS analysis; type: ADME, S9 microsome; conditions: read-out: CLH
[5] = Intrinsic clearance in human liver S9 microsomes at 1 uM in absence of NADPH by LC-MS/MS analysis; type: ADME, S9 microsome; conditions: read-out: CLH
[6] = test system: Mycobacterium tuberculosis; assay: Antitubercular activity against luxABCDE expressing Mycobacterium tuberculosis H37Rv infected in human THP1 cells measured after 3 days by luminescence assay; type: functional, organism-based; conditions: THP-1, 72 h
THP-1 = assay: Cytotoxicity against human THP1 cells after 3 days by luminescence assay; type: cell-based; conditions: THP-1, 72 h
L6 = assay: Cytotoxicity against rat L6 cells after 2 days by CellTiter-Glo luminescent cell viability assay; type: ADME, cell-based; conditions: L6, 48 h
[7] = test system: Mycobacterium tuberculosis; assay: Bactericidal activity against Mycobacterium tuberculosis H37Rv ATCC 27294 assessed as concentration required for 2 log kill after 21 days under aerobic condition by colony forming assay; type: functional; conditions: for MBC: H37Rv ATCC 27294, 504 h; for Activity: TDE = time-dependent effect
[8] = test system: Mycobacterium tuberculosis; assay: Antitubercular activity against Mycobacterium tuberculosis H37Rv ATCC 27294 after 10 days under low oxygen condition followed by incubation under aerobic condition for 28 hrs by LORA; type: functional, organism-based
[9] = test system: Mycobacterium tuberculosis; assay: Potency index, ratio of compound MIC to metronidazole MIC for antitubercular activity against Mycobacterium tuberculosis H37Rv ATCC 27294 under low oxygen condition; type: functional
HepG2 = assay: Cytotoxicity against human HepG2 cells at 100 uM after 3 days by CellTiter-Glo luminescent cell viability assay; type: cell-based; conditions: HepG2, 72 h
in vitro [10] = conditions: human, Caco-2
Description: Apparent permeability of the compound across basolateral side to apical side in human Caco2 cells monolayer at 10 uM after 2 hrs by LC-MS/MS analysis

in vitro [11] = conditions: human, Caco-2; remark: listed apart in the source
Description: Apparent permeability of the compound across apical side to basolateral side in human Caco2 cells monolayer at 10 uM after 2 hrs by LC-MS/MS analysis

[12] = Protein binding in human plasma at 5 uM after 4 hrs by LC-MS/MS analysis
[13] = Half life in human liver S9 microsomes at 1 uM in absence of NADPH by LC-MS/MS analysis
in vitro [14] = conditions: human, Caco-2; remark: listed apart in the source
Description: Efflux ratio of apparent permeability from basolateral to apical over apical to basolateral side in human Caco2 cells monolayer at 10 uM after 2 hrs by LC-MS/MS analysis

[15] = test system: Mycobacterium tuberculosis; assay: Antitubercular activity against luxABCDE expressing Mycobacterium tuberculosis H37Rv infected in mouse J774 macrophages assessed as log reduction in bacterial colonies at 20 uM measured after 4 days under aerobic condition by luminescence assay; type: functional
Vero = assay: Cytotoxicity against African green monkey Vero cells after 2 days by CellTiter-Glo luminescent cell viability assay; type: ADME, cell-based; conditions: Chlorocebus sabaeus, 48 h

Structure (SMILES) | IC50 [1] | IC90 [1] | MIC [1] | solubility [2] | IC50 [6] | IC90 [6] | MBC [7] | IC50 [8] | IC90 [8] | MIC [8] | also measured
Cc1ccoc1C(=O)NCCCn1cnc([N+](=O)[O-])n1 | 41 µM | 54 µM | 54.5 µM (≈ 15.2 µg/mL) | Soluble | – | – | – | – | – | – | –
COc1ccc2c(c1)[C@]13CCCC[C@@H]1[C@H](C2)N(C)CC3 [DEXTROMETHORPHAN] | – | – | – | – | – | – | – | – | – | – | half-life at 1 µM [3]: 1.54 to 1.59 h; microsomal CLint at 1 µM [4]: 24.2 µL/min/mg; microsomal CLint at 1 µM [5]: < 12.8 µL/min/mg
O=C(CCn1cnc([N+](=O)[O-])n1)Nc1cc(-c2ccc(F)cc2)on1 | 66 µM | > 100 µM | > 200 µM | – | – | – | – | – | – | – | –
O=C(CCn1cnc([N+](=O)[O-])n1)Nc1ccc(Oc2ccc(F)cc2)cc1 | 22 to 25 µM | 28 to 34 µM | 31 to 32 µM (≈ 11.5 to 11.9 µg/mL) | – | 3.8 µM | 16 µM | 20 µM (≈ 7.43 µg/mL) | 25 µM | 28 µM | 31 µM (≈ 11.5 µg/mL) | Activity [1]: Tde; IC50 (THP-1): 21 µM; IC50 (L6): 23 µM; Activity [7]: Tde; Ratio [9]: 6 - 9
Cc1nc([N+](=O)[O-])cn1CCCNC(=O)c1cc2ccccc2s1 | > 200 µM | > 200 µM | > 200 µM | Soluble | – | – | – | – | – | – | –
O=C(CCn1cnc([N+](=O)[O-])n1)Nc1ccc(Oc2ccccc2)cc1 | 28 to 32 µM | 39 to 45 µM | 48 µM (≈ 17 µg/mL) | – | 5 µM | 17 µM | 20 µM (≈ 7.07 µg/mL) | 32 µM | 49 µM | 81 µM (≈ 28.6 µg/mL) | Activity [1]: Tde; IC50 (THP-1): 33 µM; IC50 (L6): 32 µM; Activity [7]: Tde
O=C(Cn1cnc([N+](=O)[O-])n1)Nc1ccc(N2CCCCC2)cc1 | 29 µM | 46 µM | 48 µM (≈ 15.9 µg/mL) | – | 11 µM | 25 µM | 20 µM (≈ 6.61 µg/mL) | 99 µM | 110 µM | 120 µM (≈ 39.6 µg/mL) | IC50 (HepG2): > 100 µM; half-life at 1 µM [3]: 2.68 h; Papp B→A at 2 h, 10 µM (in vitro [10]): 27 ×10⁻⁶ cm/s; IC50 (THP-1): > 50 µM; Papp A→B at 2 h, 10 µM (in vitro [11]): 38.4 ×10⁻⁶ cm/s; fraction unbound at 4 h, 5 µM [12]: 0.233; half-life at 1 µM [13]: > 3 h; efflux ratio at 2 h, 10 µM (in vitro [14]): 0.7
Cc1nc([N+](=O)[O-])cn1CCCNC(=O)c1sc2ccccc2c1Cl | 175 µM | > 200 µM | > 200 µM | Soluble | – | – | – | – | – | – | –
N#Cc1ccc(-c2ccc(NC(=O)Cn3cnc([N+](=O)[O-])n3)cc2)cc1 | > 200 µM | > 200 µM | > 200 µM | – | – | – | – | – | – | 52.1 µM (≈ 18.1 µg/mL) | –
O=C(NCCCn1cnc([N+](=O)[O-])n1)c1cc2ccccc2s1 | 107 µM | > 200 µM | > 200 µM | Insoluble | – | – | – | – | – | – | –
CC(=O)N1CCN(c2ccc(OCC3COC(Cn4ccnc4)(c4ccc(Cl)cc4Cl)O3)cc2)CC1 (configuration not stated) [KETOCONAZOLE] | – | – | – | Insoluble | – | – | – | – | – | – | –
O=C(Cn1cnc([N+](=O)[O-])n1)Nc1ccc(Cc2ccccc2)cc1 | 30 µM | 38 µM | 45 µM (≈ 15.2 µg/mL) | – | 6.2 µM | 12 µM | 20 µM (≈ 6.75 µg/mL) | 39 µM | 59 µM | 94 µM (≈ 31.7 µg/mL) | IC50 (THP-1): 47 µM
O=C(Cn1ccnc1[N+](=O)[O-])Nc1ccc(Oc2ccc(F)cc2)cc1 | 44 µM | 89 µM | 80 µM (≈ 28.5 µg/mL) | – | – | – | 100 µM (≈ 35.6 µg/mL) | 17 µM | 31 µM | 61 µM (≈ 21.7 µg/mL) | log(activity) [15]: 2.2; IC50 (Vero): 56 µM
COCCc1ccc(OCC(O)CNC(C)C)cc1.COCCc1ccc(OCC(O)CNC(C)C)cc1.O=C(O)/C=C/C(=O)O (racemic) [METOPROLOL FUMARATE] | – | – | – | Soluble | – | – | – | – | – | – | –
O=C(Cn1cnc([N+](=O)[O-])n1)N1CCN(C(c2ccccc2)c2ccc(Cl)cc2)CC1 (configuration not stated) | 38 µM | 48 µM | 50 µM (≈ 22 µg/mL) | – | 8 µM | 11 µM | 100 µM (≈ 44.1 µg/mL) | 51 µM | 57 µM | 65 µM (≈ 28.7 µg/mL) | IC50 (L6): 32 µM; IC50 (Vero): 21 µM
